Test results from patent publication US10881110B2, “Herbicidal compositions comprising isoxazolo[5,4-b]pyridines” (BASF SE, priority 2014, dated 2021).

Tests used:
Experiment in all cases: greenhouse post-emergence herbicidal test
VIOAR = assay type: in vivo, Viola arvensis; design: key to herbicidal activity against VIOAR found / herbicidal activity against VIOLA found: rating on a scale from 0 to 100; conditions: post emergence, 6 days after treatment
Summary of the method: (§1)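 Herbicidal activity scored on a 0 (no damage) to 100 (plants destroyed) scale, usually 20 days after water-based spraying of 1–15 cm plants grown in loamy sand at 10-25 °C or 20-35 °C depending on species. Components were applied from 10% emulsion concentrates; Colby's E=X+Y−(X·Y/100) gives the additive expectation.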

IPOHE = assay type: in vivo, Ipomoea hederacea; design: key to herbicidal activity against IPOHE found: rating on a scale from 0 to 100; conditions: post emergence, 6 days after treatment
Summary of the method: as §1

POLAV = assay type: in vivo, Polygonum aviculare; design: key: rating on a scale from 0 to 100; conditions: 6 days after treatment
Experimental: (§2) The culture containers used were plastic pots containing medium loamy sand with approximately 4.6% of humus and 69.9% sand as substrate. The seeds of the test plants were sown separately for each species.
(§3) For the post-emergence treatment, the test plants were grown to a plant height of from 1 to 15 cm, depending on the plant habit, and only then treated with the active compounds which had been suspended or emulsified in water. To this end, the test plants were either sown directly, and grown in the same containers, or they were first grown separately as seedlings and transplanted into the test containers a few days prior to treatment.
(§4) Depending on the species, the plants were kept at 10-25° C. and 20-35° C., respectively.
(§5) The test period extended over 1 to 3 weeks. During this time, the plants were tended and their response to the individual treatments was evaluated 20 days after treatment except mentioned otherwise.
(§6) Evaluation was carried out using a scale from 0 to 100. 100 means no emergence of the plants, or complete destruction of at least the above-ground parts, and 0 means no damage or normal course of growth.
(§7) The respective stated components A and B, and, if appropriate, C, were formulated as a 10% by weight strength emulsion concentrate and, with addition of the amount of solvent system, introduced into the spray liquor used for applying the active compound. In the examples, the solvent used was water.
(§8) In the examples below, using the method of S. R. Colby (1967) “Calculating synergistic and antagonistic responses of herbicide combinations”, Weeds 15, p. 22 ff., the value E, which is expected if the activity of the individual active compounds is only additive, was calculated. E=X+Y−(X·Y/100)

GALAP = assay type: in vivo, Galium aparine; design: key to herbicidal activity against GALAP found: rating on a scale from 0 to 100; conditions: post emergence, 6 days after treatment, g/ha a.i.: I.1 62.5
Summary of the method: as §1

ABUTH = assay type: in vivo, Abutilon theophrast; design: key to herbicidal activity against ABUTH found: rating on a scale from 0 to 100; conditions: post emergence, 6 days after treatment, g/ha a.i.: I.1 31.25
Summary of the method: (§9)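 Herbicidal effect is rated visually from 0, no damage, to 100, complete kill, twenty days after treating plants of 1–15 cm height. Substrate is medium loamy sand with about 4.6% humus; holding temperature depends on species, either 10-25° C or 20-35° C.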

POLCO = assay type: in vivo, Polygonum convolvulus; design: key to herbicidal activity against POLCO found: rating on a scale from 0 to 100; conditions: post emergence, 6 days after treatment
Summary of the method: as §1

KCHSC = assay type: in vivo, Kochia scoparia; design: key to herbicidal activity against KCHSC found: rating on a scale from 0 to 100; conditions: post emergence, 6 days after treatment
Summary of the method: as §1

POLPE = assay type: in vivo, Persicaria maculosa; design: key: scale 0 to 100; conditions: 6 days after treatment, g/ha a.i.: I.1 31.25, B.96 35, mixture 31.25+35
Experimental: as §2, §3, §4, §5, §6, §7, §8

SORVU = assay type: in vivo; conditions: 6 days after treatment
SASKR = assay type: in vivo, Salsola kali; design: key: scale 0 to 100; conditions: 6 days after treatment
Experimental: as §2, §3, §4, §5, §6, §7, §8

CONAR = assay type: in vivo, Convolvulus arvensis; design: key: rating on a scale from 0 to 100; conditions: 6 days after treatment
Summary of the method: as §9

STEME = assay type: in vivo, Stellaria media; design: key: scale 0 to 100; conditions: 6 days after treatment, g/ha a.i.: I.1 31.25, B.96 35, mixture 31.25+35
Summary of the method: as §9

AMARE = assay type: in vivo, Amaranthus retroflexus; conditions: a.i. g/ha: I.1 20.8, B.192 62.5, 20 days after treatment
Experimental: as §2, §3, §4, §5, §6, §7, §8

AMBEL = assay type: in vivo, Ambrosia artemisiifolia; conditions: a.i. g/ha: I.1 20.8, B.192 62.5, 20 days after treatment
Summary of the method: as §9

MATCH = assay type: in vivo, Matricaria recutita; conditions: post emergence
Summary of the method: as §9

SETVI = assay type: in vivo, Setaria viridis; conditions: a.i. g/ha: I.1 20.8, B.192 62.5, 20 days after treatment
Experimental: as §2, §3, §4, §5
Evaluation was carried out using a scale from 0 to 100. […]
In the examples below, using the method of S. R. Colby (1967) “Calculating synergistic and antagonistic responses of herbicide combinations”, Weeds 15, p. 22 ff., the value E, which is expected if the activity of the individual active compounds is only additive, was calculated. […]

CHEAL = assay type: in vivo, Chenopodium album; conditions: a.i. g/ha: I.1 20.8, B.192 62.5, 20 days after treatment
Summary of the method: as §9

ERICA = assay type: in vivo, Conyza canadensis; conditions: post emergence; 6 days after treatment; g/ha a.i.: I.1 125; naptalam 50; mixture 125+50
Summary of the method: as §9

[1] = g/ha a.i.: I.1 31.25, B.96 35, mixture 31.25+35
[2] = g/ha a.i.: I.1 31.25, B.96 70, mixture 31.25+70
[3] = g/ha a.i.: I.1 31.25, B.96 140, mixture 31.25+140
[4] = g/ha a.i.: I.1 62.5, B.96 35, mixture 62.5+35
[5] = g/ha a.i.: I.1 62.5, B.96 70, mixture 62.5+70
[6] = g/ha a.i.: I.1 62.5, B.96 140, mixture 62.5+140
[7] = g/ha a.i.: I.1 31.25, naptalam 200, mixture 31.25+200
[8] = g/ha a.i.: I.1 62.5, naptalam 100, mixture 62.5+100
[9] = g/ha a.i.: I.1 62.5, naptalam 200, mixture 62.5+200
[10] = g/ha a.i.: I.1 31.25, naptalam 50, mixture 31.25+50
[11] = g/ha a.i.: I.1 62.5, naptalam 50, mixture 62.5+50
[12] = g/ha a.i.: I.1 31.25, naptalam 100, mixture 31.25+100

## CS(=O)(=O)c1ccc(C(=O)C2=C(Sc3ccccc3)C3CCC(C3)C2=O)c(Cl)c1 (stereo not drawn) [B.96, benzobicyclon]
VIOAR; [1]
  herbicidal activity against VIOAR found: 65
VIOAR; [2]
  herbicidal activity against VIOAR found: 65
VIOAR; [3]
  herbicidal activity against VIOAR found: 65
VIOAR; [4]
  herbicidal activity against VIOAR found: 65
VIOAR; [5]
  herbicidal activity against VIOAR found: 65
VIOAR; [6]
  herbicidal activity against VIOAR found: 65
IPOHE; [1]
  herbicidal activity against IPOHE found: 70
IPOHE; [2]
  herbicidal activity against IPOHE found: 70
IPOHE; [3]
  herbicidal activity against IPOHE found: 70
IPOHE; [6]
  herbicidal activity against IPOHE found: 70
POLAV; [5]
  herbicidal activity against POLAV found: 70
POLAV; [6]
  herbicidal activity against POLAV found: 70
GALAP; B.96 70, mixture 62.5+70
  herbicidal activity against GALAP found: 75
GALAP; B.96 140, mixture 62.5+140
  herbicidal activity against GALAP found: 80
ABUTH; B.96 35, mixture 31.25+35
  herbicidal activity against ABUTH found: 80
ABUTH; B.96 70, mixture 31.25+70
  herbicidal activity against ABUTH found: 85
POLCO; [2]
  herbicidal activity against POLCO found: 70
POLCO; [3]
  herbicidal activity against POLCO found: 80
POLCO; [5]
  herbicidal activity against POLCO found: 70
POLCO; [6]
  herbicidal activity against POLCO found: 80
KCHSC; [1]
  herbicidal activity against KCHSC found: 35
KCHSC; [2]
  herbicidal activity against KCHSC found: 40
KCHSC; [3]
  herbicidal activity against KCHSC found: 55
KCHSC; [4]
  herbicidal activity against KCHSC found: 35
KCHSC; [5]
  herbicidal activity against KCHSC found: 40
POLPE
  herbicidal activity against POLPE found: 85
SORVU; [3]
  herbicidal activity against SORVU found: 60
SASKR; [6]
  herbicidal activity against SASKR found: 65
CONAR; [6]
  herbicidal activity against CONAR found: 75
STEME
  herbicidal activity against STEME found: 85

## COC(=O)Nc1cccc(OC(=O)Nc2cccc(C)c2)c1 [B.192, phenmedipham]
AMARE
  herbicidal activity against AMARE found: 35%
AMBEL
  herbicidal activity against AMBEL found: 90%
MATCH; a.i. g/ha: I.1 20.8, B.192 62.5, 20 days after treatment
  herbicidal activity against MATCH found: 50%
SETVI
  herbicidal activity against SETVI found: 65%
CHEAL
  herbicidal activity against CHEAL found: 50%

## O=C(O)c1ccccc1C(=O)Nc1cccc2ccccc12 [naptalam]
VIOAR; [7]
  herbicidal activity against VIOAR found: 70
VIOAR; [8]
  herbicidal activity against VIOAR found: 65
VIOAR; [9]
  herbicidal activity against VIOAR found: 70
ERICA
  herbicidal activity against ERICA found: 80
POLAV; [10]
  herbicidal activity against POLAV found: 70
POLAV; [7]
  herbicidal activity against POLAV found: 75
POLAV; [11]
  herbicidal activity against POLAV found: 70
POLAV; [8]
  herbicidal activity against POLAV found: 75
POLAV; [9]
  herbicidal activity against POLAV found: 75
MATCH; 6 days after treatment, g/ha a.i.: I.1 31.25, naptalam 50, mixture 31.25+50
  herbicidal activity against MATCH found: 30
MATCH; 6 days after treatment, g/ha a.i.: I.1 31.25, naptalam 100, mixture 31.25+100
  herbicidal activity against MATCH found: 65
MATCH; 6 days after treatment, g/ha a.i.: I.1 62.5, naptalam 50, mixture 62.5+50
  herbicidal activity against MATCH found: 30
ABUTH; naptalam 100, mixture 31.25+100
  herbicidal activity against ABUTH found: 85
POLCO; [10]
  herbicidal activity against POLCO found: 75
POLCO; [11]
  herbicidal activity against POLCO found: 75
KCHSC; [12]
  herbicidal activity against KCHSC found: 85
KCHSC; [7]
  herbicidal activity against KCHSC found: 85
SORVU; [9]
  herbicidal activity against SORVU found: 50
SASKR; [7]
  herbicidal activity against SASKR found: 80
SASKR; [11]
  herbicidal activity against SASKR found: 70
SASKR; [9]
  herbicidal activity against SASKR found: 80
CONAR; [10]
  herbicidal activity against CONAR found: 80
CONAR; [12]
  herbicidal activity against CONAR found: 80
CONAR; [7]
  herbicidal activity against CONAR found: 80
CONAR; g/ha a.i.: I.1 125, naptalam 100, mixture 125+100
  herbicidal activity against CONAR found: 80
